Experimental data as given in patent publication US7476687B2, “Substituted furo[2,3-g]indazoles for the treatment of glaucoma” (Alcon, Inc., priority 2003, dated 2009).

What was measured:
[1] = test system: Conscious Cynomolgus Monkeys; experiment: IOP Response in Conscious Cynomolgus Monkeys; format: in vivo, cynomolgus monkey; conditions: right eye
Experimental: IOP was determined with an Alcon Pneumatonometer after light corneal anesthesia with 0.1% proparacaine. Eyes were washed with saline after each measurement. After a baseline IOP measurement, test compound was instilled in one 30 μL aliquot to the right eyes only of nine cynomolgus monkeys. Vehicle was instilled in the right eyes of six additional animals. Subsequent IOP measurements were taken at 1, 3, and 6 hours.

5HT2A(rat) [2] = target: T1, 5HT2A(rat) (Rattus norvegicus, UniProt P14842); experiment: 5HT2 Functional Assay: [Ca2+]i Mobilization (FLIPR, A7r5 cells); format: cell-based; set-up: endogenous in cells; host or cells: A7r5 rat vascular smooth muscle cells; conditions: for EC50: [Ca2+]i mobilization, rat vascular smooth muscle cells A7r5; for Emax: percentage of maximum 5-HT-induced response, A7r5 cells
T1 sequence (P14842 whole entry): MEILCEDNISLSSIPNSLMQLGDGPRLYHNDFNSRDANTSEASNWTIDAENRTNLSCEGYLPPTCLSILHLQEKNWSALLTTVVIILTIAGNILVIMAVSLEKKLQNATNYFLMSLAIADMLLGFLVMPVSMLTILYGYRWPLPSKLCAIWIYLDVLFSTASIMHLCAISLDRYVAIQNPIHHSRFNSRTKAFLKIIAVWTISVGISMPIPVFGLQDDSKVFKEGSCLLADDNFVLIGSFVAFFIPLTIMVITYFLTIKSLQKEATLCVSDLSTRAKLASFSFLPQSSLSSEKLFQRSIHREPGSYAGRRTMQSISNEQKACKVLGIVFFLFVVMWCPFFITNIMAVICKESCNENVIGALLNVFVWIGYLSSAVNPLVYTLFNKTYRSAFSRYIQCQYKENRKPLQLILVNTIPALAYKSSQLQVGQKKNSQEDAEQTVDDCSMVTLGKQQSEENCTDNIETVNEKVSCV
Experimental: The receptor-mediated mobilization on intracellular calcium ([Ca^2+]i) was studied using the Fluorescence Imaging Plate Reader (FLIPR) instrument. Rat vascular smooth muscle cells, A7r5, were grown in a normal media of DMEM/10% FBS and 10 μg/mL gentamycin. Confluent cell monolayers were trypsinized, pelleted, and re-suspended in normal media. Cells were seeded in a 50 μL volume at a density of 20,000 cells/well in a black wall, 96-well tissue culture plate and grown for 2 days.
On the day of the experiment, one vial of FLIPR Calcium Assay Kit dye was re-suspended in 50 mL of a FLIPR buffer consisting of Hank's Balanced Salt Solution (HBSS), 20 mM HEPES, and 2.5 mM probenecid, pH 7.4. Cells were loaded with the calcium-sensitive dye by addition of an equal volume (50 μL) to each well of the 96-well plate and incubated with dye for 1 h at 23° C.
Compounds were diluted 1:50 in 20% DMSO/20% Ethanol. For “hit” screening, compounds were further diluted 1:10 in FLIPR buffer and tested at a final concentration of 10 μM.
The compound plate and cell plate were placed in the FLIPR instrument. At the beginning of an experimental run, a signal test was performed to check the basal fluorescence signal from the dye-loaded cells and the uniformity of the signal across the plate. The basal fluorescence was adjusted between 8000-12000 counts by modifying the exposure time, the camera F-stop, or the laser power. Instrument settings for a typical assay were the following: laser power 0.3-0.6 W, camera F-stop F/2, and exposure time 0.4 sec. An aliquot (25 μL) of the test compound was added to the existing 100 μL dye-loaded cells at a dispensing speed of 50 μL/sec. Fluorescence data were collected in real-time at 1.0 sec intervals for the first 60 secs and at 6.0 sec intervals for an additional 120 secs.

5HT2A(rat) [3] = target: T1, 5HT2A(rat); experiment: 5-HT2 Receptor Binding Assay ([125I]DOI competition, cerebral cortex homogenates); set-up: Aliquots of post mortem rat or human cerebral cortex homogenates (400 μL) dispersed in 50 mM TrisHCl buffer; from tissue; host or cells: post mortem rat cerebral cortex homogenate; conditions: inhibition of [125I]DOI binding
Experimental: 5-HT2 Receptor Binding Assay
Aliquots of post mortem rat or human cerebral cortex homogenates (400 μL) dispersed in 50 mM TrisHCl buffer (pH 7.4) are incubated with [^125I]DOI (80 pM final) in the absence or presence of methiothepin (10 μM final) to define total and non-specific binding, respectively, in a total volume of 0.5 mL. The assay mixture is incubated for 1 hour at 23° C. in polypropylene tubes and the assays terminated by rapid vacuum filtration over Whatman GF/B glass fiber filters previously soaked in 0.3% polyethyleneimine using ice-cold buffer. Test compounds (at different concentrations) are substituted for methiothepin. Filter-bound radioactivity is determined by scintillation spectrometry on a beta counter. The data are analyzed using a non-linear, iterative curve-fitting computer program [Trends Pharmacol. Sci., 16, 413 (1995)] to determine the compound affinity parameter. The concentration of the compound needed to inhibit the [^125I]DOI binding by 50% of the maximum is termed the IC50 or Ki value.

[4] = 1 hour after dose, 300 μg topical
[5] = 3 hours after dose, 300 μg topical
[6] = 6 hours after dose, 300 μg topical

SMILES | Percent IOP Reduction ± SEM ([1]; 1 hour after dose, 100 μg topical) [%] | Percent IOP Reduction ± SEM ([1]; 3 hours after dose, 100 μg topical) [%] | Percent IOP Reduction ± SEM ([1]; 6 hours after dose, 100 μg topical) [%] | Percent IOP Reduction ± SEM [1, 4] [%] | Percent IOP Reduction ± SEM [1, 5] [%] | Percent IOP Reduction ± SEM [1, 6] [%] | EC50 (5HT2A(rat) [2]) [nM] | Emax (5HT2A(rat) [2]) [%] | IC50 (5HT2A(rat) [3]) [nM] | melting point [°C]
COc1cc(C[C@@H](C)N)c(OC)cc1I [(R)-DOI, reference compound] | 11 ± 5 | 25 ± 3 | 34 ± 5 | – | – | – | – | – | – | –
C[C@H](N)Cn1ncc2ccc3oc(C(N)=O)cc3c21 [Example 3, 1-((S)-2-Aminopropyl)-1H-furo[2,3-g]indazole-7-carboxylic acid amide] | – | – | – | 9 ± 4 | 23 ± 4 | 27 ± 5 | 158 | 87 | 2.3 | –
CNC(=O)c1cc2c(ccc3cnn(C[C@H](C)N)c32)o1.O=C(O)/C=C/C(=O)O [Example 4, 1-((S)-2-Aminopropyl)-1H-furo[2,3-g]indazole-7-carboxylic acid methyl amide fumarate] | – | – | – | 13 ± 3 | 30 ± 4 | 31 ± 4 | 54 | 98 | 0.81 | 180 to 182
C[C@H](N)Cn1ncc2ccc3oc(C(=O)NCC(C)(C)CO)cc3c21 [Example 11, 1-((S)-2-Aminopropyl)-1H-furo[2,3-g]indazole-7-carboxylic acid (3-hydroxy-2,2-dimethyl-propyl)-amide] | – | – | – | 10 ± 5 | 23 ± 5 | 26 ± 5 | 74 | 76 | 1.8 | –
